Reference: PubChem BioAssay (NCI)
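At the GI50, growth is halved. TGI denotes the concentration required for complete inhibition of growth.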

Columns and labels:
Assay in all cases: DTP human tumour cell line panel, 384-well format
MDA-MB-231 breast = test system: MDA-MB-231 breast
SR leukemia = test system: SR leukemia
NCI/ADR-RES ovarian = test system: NCI/ADR-RES ovarian
SK-MEL-5 melanoma = test system: SK-MEL-5 melanoma
HL-60(TB) leukemia = test system: HL-60(TB) leukemia
RPMI-8226 leukemia = test system: RPMI-8226 leukemia
OVCAR-8 ovarian = test system: OVCAR-8 ovarian
UACC-62 melanoma = test system: UACC-62 melanoma
CAKI-1 renal = test system: CAKI-1 renal
MOLT-4 leukemia = test system: MOLT-4 leukemia
MCF7 breast = test system: MCF7 breast
SF-539 CNS = test system: SF-539 CNS
SK-MEL-2 melanoma = test system: SK-MEL-2 melanoma
SF-295 CNS = test system: SF-295 CNS
HOP-92 NSCLC = test system: HOP-92 NSCLC
UACC-257 melanoma = test system: UACC-257 melanoma
BT-549 breast = test system: BT-549 breast
NCI-H322M lung = test system: NCI-H322M lung
SF-268 CNS = test system: SF-268 CNS
MDA-MB-435 melanoma = test system: MDA-MB-435 melanoma
HT29 colon = test system: HT29 colon
OVCAR-5 ovarian = test system: OVCAR-5 ovarian
SK-OV-3 ovarian = test system: SK-OV-3 ovarian
SNB-75 CNS = test system: SNB-75 CNS
IGROV1 ovarian = test system: IGROV1 ovarian
NCI-H522 lung = test system: NCI-H522 lung
HCC-2998 colon = test system: HCC-2998 colon
NCI-H226 lung = test system: NCI-H226 lung
SN12C renal = test system: SN12C renal
MALME-3M melanoma = test system: MALME-3M melanoma
HCT-15 colon = test system: HCT-15 colon
SW-620 colon = test system: SW-620 colon
M14 melanoma = test system: M14 melanoma
PC-3 prostate = test system: PC-3 prostate
COLO 205 colon = test system: COLO 205 colon
A498 renal = test system: A498 renal
U251 glioblastoma = test system: U251 glioblastoma
MDA-MB-468 breast = test system: MDA-MB-468 breast
LOX IMVI melanoma = test system: LOX IMVI melanoma
RXF 393 renal = test system: RXF 393 renal
DU-145 prostate = test system: DU-145 prostate
OVCAR-3 ovarian = test system: OVCAR-3 ovarian
786-0 renal = test system: 786-0 renal
KM12 colon = test system: KM12 colon
OVCAR-4 ovarian = test system: OVCAR-4 ovarian
UO-31 renal = test system: UO-31 renal
TK-10 renal = test system: TK-10 renal
NCI-H460 NSCLC = test system: NCI-H460 NSCLC
K-562 leukemia = test system: K-562 leukemia
HOP-62 NSCLC = test system: HOP-62 NSCLC
NCI-H23 lung = test system: NCI-H23 lung
SNB-19 CNS = test system: SNB-19 CNS
HCT-116 colon = test system: HCT-116 colon
CCRF-CEM leukemia = test system: CCRF-CEM leukemia
EKVX NSCLC = test system: EKVX NSCLC
T-47D breast = test system: T-47D breast
A549 NSCLC = test system: A549 NSCLC
SK-MEL-28 melanoma = test system: SK-MEL-28 melanoma
ACHN renal = test system: ACHN renal

Cc1nn(C)c(COc2ccc(N3CCN(S(=O)(=O)N(C)C)CC3)cc2)c1-c1cccc2c(CCCOc3cccc4ccccc34)c(C(=O)O)n(CCN3CCOCC3)c12
GI50 (MDA-MB-231 breast): 4.49 µM
TGI (MDA-MB-231 breast): 13.3 µM
GI50 (SR leukemia): 1.57 µM
TGI (SR leukemia): 2.93 µM
GI50 (NCI/ADR-RES ovarian): 32.8 µM
TGI (NCI/ADR-RES ovarian): > 92.7 µM
GI50 (SK-MEL-5 melanoma): 2.92 µM
TGI (SK-MEL-5 melanoma): 7.26 µM
GI50 (HL-60(TB) leukemia): 2.12 µM
TGI (HL-60(TB) leukemia): 3.58 µM
GI50 (RPMI-8226 leukemia): 1.76 µM
TGI (RPMI-8226 leukemia): 3.16 µM
GI50 (OVCAR-8 ovarian): 3.73 µM
TGI (OVCAR-8 ovarian): 12.9 µM
GI50 (UACC-62 melanoma): 2.67 µM
TGI (UACC-62 melanoma): 5.65 µM
GI50 (CAKI-1 renal): 6.88 µM
TGI (CAKI-1 renal): 17.6 µM
GI50 (MOLT-4 leukemia): 2.02 µM
TGI (MOLT-4 leukemia): 3.66 µM
GI50 (MCF7 breast): 3.06 µM
TGI (MCF7 breast): 8.69 µM
GI50 (SF-539 CNS): 3.57 µM
TGI (SF-539 CNS): 9.98 µM
GI50 (SK-MEL-2 melanoma): 2.14 µM
TGI (SK-MEL-2 melanoma): 3.92 µM
GI50 (SF-295 CNS): 2.94 µM
TGI (SF-295 CNS): 7.54 µM
GI50 (HOP-92 NSCLC): 3.32 µM
TGI (HOP-92 NSCLC): 8.76 µM
GI50 (UACC-257 melanoma): 2.99 µM
TGI (UACC-257 melanoma): 7.34 µM
GI50 (BT-549 breast): 3.49 µM
TGI (BT-549 breast): 8.64 µM
GI50 (NCI-H322M lung): 6.07 µM
TGI (NCI-H322M lung): 14.6 µM
GI50 (SF-268 CNS): 5.48 µM
TGI (SF-268 CNS): 15.2 µM
GI50 (MDA-MB-435 melanoma): 4.32 µM
TGI (MDA-MB-435 melanoma): 14.6 µM
GI50 (HT29 colon): 2.72 µM
TGI (HT29 colon): 7.13 µM
GI50 (OVCAR-5 ovarian): 5.75 µM
TGI (OVCAR-5 ovarian): 16.2 µM
GI50 (SK-OV-3 ovarian): 5.61 µM
TGI (SK-OV-3 ovarian): 13.6 µM
GI50 (SNB-75 CNS): 3.52 µM
TGI (SNB-75 CNS): 8.36 µM
GI50 (IGROV1 ovarian): 3.11 µM
TGI (IGROV1 ovarian): 8.58 µM
GI50 (NCI-H522 lung): 2.64 µM
TGI (NCI-H522 lung): 5.42 µM
GI50 (HCC-2998 colon): 3.09 µM
TGI (HCC-2998 colon): 7.88 µM
GI50 (NCI-H226 lung): 3.65 µM
TGI (NCI-H226 lung): 10.3 µM
GI50 (SN12C renal): 3.55 µM
TGI (SN12C renal): 12.7 µM
GI50 (MALME-3M melanoma): 3.73 µM
TGI (MALME-3M melanoma): 10.5 µM
GI50 (HCT-15 colon): 12.1 µM
TGI (HCT-15 colon): 25.5 µM
GI50 (SW-620 colon): 3.46 µM
TGI (SW-620 colon): 10.6 µM
GI50 (M14 melanoma): 4.13 µM
TGI (M14 melanoma): 9.35 µM
GI50 (PC-3 prostate): 3.72 µM
TGI (PC-3 prostate): 10.9 µM
GI50 (COLO 205 colon): 4.33 µM
TGI (COLO 205 colon): 13.3 µM
GI50 (A498 renal): 3.63 µM
TGI (A498 renal): 11.1 µM
GI50 (U251 glioblastoma): 3.67 µM
TGI (U251 glioblastoma): 11.8 µM
GI50 (MDA-MB-468 breast): 2.3 µM
TGI (MDA-MB-468 breast): 4.43 µM
GI50 (LOX IMVI melanoma): 5.6 µM
TGI (LOX IMVI melanoma): 13.5 µM
GI50 (RXF 393 renal): 1.79 µM
TGI (RXF 393 renal): 5.04 µM
GI50 (DU-145 prostate): 6.23 µM
TGI (DU-145 prostate): 16.2 µM
GI50 (OVCAR-3 ovarian): 2.32 µM
TGI (OVCAR-3 ovarian): 5.26 µM
GI50 ([…]-0 renal): 5.67 µM
TGI (786-0 renal): 13.8 µM
GI50 (KM12 colon): 4.51 µM
TGI (KM12 colon): 12.2 µM
GI50 (OVCAR-4 ovarian): 3.43 µM
TGI (OVCAR-4 ovarian): 9.25 µM
GI50 (UO-31 renal): 9.73 µM
TGI (UO-31 renal): 21.5 µM
GI50 (TK-10 renal): 4.94 µM
TGI (TK-10 renal): 14.1 µM
GI50 (NCI-H460 NSCLC): 5.22 µM
TGI (NCI-H460 NSCLC): 14.9 µM
GI50 (K-562 leukemia): 4.21 µM
TGI (K-562 leukemia): 13.8 µM
GI50 (HOP-62 NSCLC): 4.22 µM
TGI (HOP-62 NSCLC): 11.3 µM
GI50 (NCI-H23 lung): 3.54 µM
TGI (NCI-H23 lung): 9.43 µM
GI50 (SNB-19 CNS): 3.77 µM
TGI (SNB-19 CNS): 12.8 µM
GI50 (HCT-116 colon): 2.87 µM
TGI (HCT-116 colon): 8.51 µM
GI50 (CCRF-CEM leukemia): 2.41 µM
TGI (CCRF-CEM leukemia): 4.78 µM
GI50 (EKVX NSCLC): 4.87 µM
TGI (EKVX NSCLC): 16.7 µM
GI50 (T-47D breast): 3.6 µM
TGI (T-47D breast): 10.8 µM
GI50 (A549 NSCLC): 9.44 µM
TGI (A549 NSCLC): 23.3 µM
GI50 (SK-MEL-28 melanoma): 3.07 µM
TGI (SK-MEL-28 melanoma): 7.47 µM
GI50 (ACHN renal): 6.55 µM
TGI (ACHN renal): 17.6 µM
